Legend:
macrophages = conditions: via alpha7nAChR; cited from earlier work
[1] = mice; cited from earlier work
serum TNF and HMGB1 = conditions: cited from earlier work
[2] = system: RAW264.7 macrophage cells; conditions: via alpha7nAchR; cited from earlier work
hemorrhagic rats = test: Survival after severe hemorrhage and resuscitation; type: in vivo, rat; conditions: for animals with hemorrhagic shock protected: n=7/group
Protocol: Adult male Sprague-Dawley (350-450 g) rats were purchased from Harlen Sprague-Dawley (Indianapolis, Ind., USA) and allowed to acclimate for 7 days, housed at 25° C. on a 12-hr light/dark cycle. Animals were randomly grouped and assigned to a specific experiment. Investigators were blinded to the experimental treatment.
Animals were anaesthetized by inhalation of isoflurane (5% induction, 2% maintenance; Minrad, Buffalo, N.Y., USA) and subjected to surgical catheter placement into the femoral artery and vein under sterile conditions. To avoid blood clot and maintain catheter patency, the catheters were flushed with 1% heparin solution immediately before placement. Heparin was not used in vivo during the experiment or observation period in agreement with previous studies. After the catheter implantation, the blood pressure and the heart rate were recorded for 15 min. to establish a physiological baseline prior the hemorrhage procedure. Then, the animals were subjected to hemorrhage over 15 min. to reach a mean arterial blood pressure (MAP) of 35-40 mmHg and subsequent maintenance of this blood pressure by continued blood withdrawal for another 15 min. After the shock phase, resuscitated animals received specific resuscitation treatment over 40 min. with a total volume of 15 ml/kg (equivalent to 1000 ml of Hextend in a 70 kg person). The femoral artery was catheterized with a catheter R-FAC (Braintree Scientific, Inc., Braintree, Mass., USA) previously flushed with 1% heparin in 0.9% saline to allow spontaneous bleeding due to arterial blood pressure. Shed blood was considered lost and it was not reinfused. After resuscitation treatment, the animals were kept anesthetized for 2 hrs to record heart rate, blood pressure and blood chemistry. The control animals were also anesthetized with isoflurane for blood collection. Then, the anesthesia was stopped and the animals were allowed to recover from anesthesia and housed individually in regular cages. Splenectomy was performed as we described previously. Briefly, the spleen was identified following a midline laparotomy incision, and removed after appropriate blood vessel ligation. Sham animals underwent laparotomy without splenectomy.
All data in the figures and text are expressed as mean±standard deviation (SD). Statistical analyzes were performed using the one-way ANOVA with multiple pairwise comparisons with the Bonferroni's adjustment for multiple hypothesis testing. The Student's t-test was used to compare mean values between two experimental groups. Statistical analyzes of survival were determined using the logrank test. P-values<0.05 were considered statistically significant.
Adult male Sprague-Dawley hemorrhagic rats received no resuscitation (NR) or were resuscitated with 15 ml/kg (i.v.) Hextend (HEXT) or Hextend supplemented with GTS (GTS). (A) Arterial blood pressure was recorded during hemorrhage and the resuscitation treatment. (B) All animals without resuscitation treatment (NR; n=10) died within the first 5 hrs after hemorrhage with an average time of death of 161±26 min. Resuscitation with Hextend allowed the animals to restore normal blood pressure and tissue perfusion, and yet 90% of the animals died (n=9). […] P<0.05 survival logrank test versus NR (*) or HXT(#).

[3] = Arterial blood pressure during hemorrhage and resuscitation; type: in vivo, rat; conditions: 15 ml/kg resuscitation fluid i.v.
Protocol: Animals were anaesthetized by inhalation of isoflurane (5% induction, 2% maintenance; Minrad, Buffalo, N.Y., USA) and subjected to surgical catheter placement into the femoral artery and vein under sterile conditions. To avoid blood clot and maintain catheter patency, the catheters were flushed with 1% heparin solution immediately before placement. […] After the catheter implantation, the blood pressure and the heart rate were recorded for 15 min. to establish a physiological baseline prior the hemorrhage procedure. Then, the animals were subjected to hemorrhage over 15 min. to reach a mean arterial blood pressure (MAP) of 35-40 mmHg and subsequent maintenance of this blood pressure by continued blood withdrawal for another 15 min. After the shock phase, resuscitated animals received specific resuscitation treatment over 40 min. with a total volume of 15 ml/kg (equivalent to 1000 ml of Hextend in a 70 kg person). The femoral artery was catheterized with a catheter R-FAC (Braintree Scientific, Inc., Braintree, Mass., USA) previously flushed with 1% heparin in 0.9% saline to allow spontaneous bleeding due to arterial blood pressure. Shed blood was considered lost and it was not reinfused. After resuscitation treatment, the animals were kept anesthetized for 2 hrs to record heart rate, blood pressure and blood chemistry. […]

[4] = Blood chemistry during resuscitation (i-Stat); type: in vivo, rat; conditions: blood at 2 hrs after hemorrhage; n=4/group
Protocol: (§1) Activation Blood was collected at 2 hrs after the hemorrhagic shock and analyzed using the i-Stat blood analyzer (Abbot Laboratories, IL, USA). Lung function was assessed by analyzing blood gases including total and partial carbon dioxide (TCO2, PCO2), bicarbonate (HCO3), pH and the base excess of extracellular fluid (BEecf). The organ function tests include […] sodium, potassium, chloride, the anion gap (AnGap), total plasma protein (TP), and blood urea nitrogen (BUN). Blood chemistry also included glucose, hematocrit and hemoglobin. The systemic inflammatory status was assessed by analyzing critical pro-inflammatory cytokines and cardiodepressant factors such as TNF and HMGB1. The major organs were collected and immediately sliced and washed with PBS at 4° C. TNF concentrations in serum and major organs were determined by ELISA (R&D Systems, Inc., Minneapolis, Minn., USA). HMGB1 was analyzed by Western blot as previously described.

TNF [5] = test: TNF protein in serum and organs by ELISA during resuscitation; type: in vivo, rat; conditions: non-splenectomized animals; 2 hrs; n=4/group
Protocol: as §1

p65RelA NF-κB = p65RelA NF-κB binding to DNA in organs (TransAM DNA-Binding ELISA); type: in vivo, rat; conditions: nuclear extracts at 2 hrs after hemorrhage
Protocol: (§2) Homogenates were normalized by protein concentration and the activation of IκBα was analyzed by Western blot by using anti-IκBα polyclonal antibody ab7217 and anti-phosphorylated-IκBα(phospho S32+S36) monoclonal antibody [clone39A1431] ab12135 (Abcam; Cambridge, Mass., USA). Transcriptional activity of splenic p65RelA was analyzed by TransAM DNABinding ELISA (Active Motif; Cambridge, Mass., USA) following manufacturer's instructions. […] Protein levels were measured using the Bradford method (BIO-RAD) and PARP activity was normalized to protein content.

RelB NF-κB = RelB NF-κB binding to DNA in spleen (TransAM DNA-Binding ELISA); type: in vivo, rat; conditions: nuclear extracts at 2 hrs after hemorrhage
mRNA TNF = test: TNF transcription in heart and spleen by real-time PCR; type: in vivo, rat; conditions: 2 hrs after hemorrhage; as compared with Hextend; n=4/group
Protocol: We analyzed mRNA TNF levels in the heart and the spleen by real-time PCR (FIG. 5, GTS inhibits TNF transcription in the spleen during resuscitation. Organs from control or hemorrhagic animals without or with resuscitation were analyzed at 2 hrs after hemorrhage. TNF transcription in the (A) heart and (B) spleen was analyzed by real-time PCR. * represents P<0.05 versus HXT (n=4/group; one-way ANOVA with Bonferroni's corrections)). Hemorrhage increased mRNA TNF levels in both the heart and the spleen as analyzed by real-time PCR. […] In order to determine whether the inhibition of splenic TNF is sufficient to account for the anti-inflammatory potential of GTS, we analyzed the pharmacological implications of the spleen during resuscitation.

TNF [6] = test: TNF protein in splenectomized hemorrhagic animals after resuscitation; type: in vivo, rat; conditions: n=4/group
Protocol: as §1

HMGB1 = test: Serum HMGB1 by Western blot during resuscitation; type: in vivo, rat; conditions: 2 hrs after hemorrhage; n=4/group
Protocol: as §1

[7] = system: poly(ADP-ribose) polymerase (PARP); test: PARP activity in organ homogenates; type: in vivo, rat; conditions: liver homogenates; n=4/group
Protocol: as §2

[8] = rats; cited from earlier work

CN1CCCC1c1cccnc1 (stereo not drawn) [nicotine]
production of TNF and HMGB1 in macrophages (macrophages): inhibits TNF and HMGB1 production
effect on locomotor activity [1]: biphasic effect
survival (serum TNF and HMGB1; experimental models of systemic inflammation): improves survival
serum TNF and HMGB1 levels (serum TNF and HMGB1; in vivo treatment, experimental models of systemic inflammation): inhibits serum TNF and HMGB1 levels
systemic TNF levels in sham versus splenectomized animals (serum TNF and HMGB1; previous studies): attenuated systemic TNF levels in sham but not in splenectomized animals
endotoxin-induced p65NF-κB activation [2]: inhibits endotoxininduced p65NF-κB activation

COc1ccc(/C=C2\CCCN=C2c2cccnc2)c(OC)c1 [GTS, 3-[(2,4-dimethoxy)benzylidene]-anabaseine]
animals with hemorrhagic shock protected (hemorrhagic rats; 0.02 mg/kg GTS in Hextend): 17%
protection as compared with Hextend solution alone (logrank) (hemorrhagic rats; 0.2 mg/kg GTS): statistically significant protection
animals with hemorrhagic shock protected (hemorrhagic rats; 0.2 mg/kg GTS in Hextend): 67%
protection as compared with Hextend solution alone (logrank) (hemorrhagic rats; 2 mg/kg GTS): statistically significant protection
survival from lethal hemorrhage (hemorrhagic rats; Hextend supplemented with 350 uM GTS, 15 ml/kg i.v., n=7, followed up to 7 days): rescued all the animals from lethal hemorrhage
blood pressure after resuscitation [3]: re-established blood pressure
AnGap, bicarbonate and chloride [4]: re-established normal values of AnGap and bicarbonate but not hypochloremia
hyperglycemic response (glucose) [4]: significantly prevented
metabolic acidosis (pH) [4]: prevented metabolic acidosis
uremia (blood urea nitrogen) [4]: did not prevent uremia
TNF levels in organs (lung, liver, heart, spleen) (TNF [5]): blunted TNF levels in all of the organs
serum (circulating) TNF levels (TNF [5]): circulating TNF levels similar to those in control mice
p65RelA NF-κB activation in organs (heart, liver, spleen) (p65RelA NF-κB): inhibited p65RelA NF-κB in most of the organs but not in the heart
RelB NF-κB activation in spleen (RelB NF-κB): not affected
mRNA TNF levels in heart and spleen (mRNA TNF): decreased mRNA TNF levels in the spleen but not in the heart
TNF levels in serum, lung and heart of splenectomized animals (TNF [6]): significantly inhibited serum TNF levels as well as TNF levels in the lung and the heart
systemic (serum) TNF levels in splenectomized animals (TNF [6]): significantly inhibited systemic TNF levels
serum HMGB1 levels (HMGB1): no serum HMGB1 was found
hepatic PARP activity [7]: inhibited PARP activation
effect on dopamine turnover [8]: no effect
effect on locomotor activity [1]: no effect

Reference: patent publication US20100152239A1, “Method to Improve Survival in Sepsis” (priority 2008, published 2010)
